The CombiSolv-Exp solvation set (Vermeire and Green 2021)

Experiment: solvent given as SMILES

ClC(Cl)Cl
Details | solvation free energy, 298 K [kcal/mol]
in Brc1cccc2ccccc12 | -3.79
in C1CCCC1 | -3.87
in C1CCOC1 | -5.13
in C1COCCO1 | -4.64
in C=CCCCCCCCCCCCCCC | -3.42
in CC#N | -4.31
in CC(=O)CC(C)C | -4.51
in CC(=O)N(C)C | -5.18
in CC(=O)OCc1ccccc1 | -4.25
in CC(C)=O | -4.67
in CCC(C)=O | -4.72
in CCCCCCC | -3.62
in CCCCCCCC | -3.52
in CCCCCCCCC=CCCCCCCCC(=O)OCC(COC(=O)CCCCCCCC=CCCCCCCCC)OC(=O)CCCCCCCC=CCCCCCCCC | -4.02
in CCCCCCCCCCCCCC | -3.35
in CCCCCCCCCCCCCCCC | -3.38
in CCCCCCCCCCCCO | -3.65
in CCCCCCCCN(CCCCCCCC)CCCCCCCC | -3.59
in CCCCCCCCO | -3.8
in CCCCCN(CCCCC)CCCCC | -3.82
in CCCCCl | -4.08
in CCCCN(C=O)CCCC | -4.83
in CCCCN(CCCC)CCCC | -3.69
in CCCCO | -4.02
in CCCCOCCCC | -4.16
in CCN(CC)C(C)=O | -5.18
in CCNC(C)=O | -4.57
in CCNC=O | -4.41
in CCO | -4.12
in CCOC(=O)c1ccccc1C(=O)OCC | -4.1
in CCOC(C)=O | -4.61
in CN1CCCC1=O | -5.24
in CN1CCCCC1=O | -5.27
in CNC(C)=O | -4.57
in CO | -4.12
in COC(C)=O | -4.67
in COCOC | -4.27
in CS(C)=O | -4.72
in ClC(Cl)(Cl)Cl | -4
in ClCCCl | -4.17
in NC=O | -2.91
in O | -1.08
in O=C1CCCCC1 | -4.73
in S=C=S | -4.15
in [2H]O[2H] | -1.26
in c1ccc2ncccc2c1 | -4.41

CC1=CCC(C(C)C)C=C1 (stereo not given)
Details | solvation free energy, 298 K [kcal/mol]
in O | 0.2

Clc1cc(Cl)cc(Cl)c1
Details | solvation free energy, 298 K [kcal/mol]
in CCCCCC | -6.96
in CCCCCCCCO | -6.62
in O | -0.78

Cc1c(Cl)c(Cl)c(Cl)c(Cl)c1Cl
Details | solvation free energy, 298 K [kcal/mol]
in CCCCCCCCC=CCCCCCCCC(=O)OCC(COC(=O)CCCCCCCC=CCCCCCCCC)OC(=O)CCCCCCCC=CCCCCCCCC | -9.88
in O | -2.02

Oc1ccc(Br)cc1Br
Details | solvation free energy, 298 K [kcal/mol]
in O | -5.69

O=C(O)CCCc1ccccc1
Details | solvation free energy, 298 K [kcal/mol]
in O | -9.07

COCOC
Details | solvation free energy, 298 K [kcal/mol]
in ClC(Cl)(Cl)Cl | -3.66
in ClC(Cl)Cl | -3.99
in O | -2.95
in S=C=S | -3.28

Cn1ccnc1
Details | solvation free energy, 298 K [kcal/mol]
in O | -8.41

CCCCCCCCCCCCCCCCCC
Details | solvation free energy, 298 K [kcal/mol]
in CC(=O)N(C)C | -12.1
in CCCCCCCCC=CCCCCCCCC(=O)OCC(COC(=O)CCCCCCCC=CCCCCCCCC)OC(=O)CCCCCCCC=CCCCCCCCC | -12.4
in CCCCOC(C)=O | -11.9
in CCO | -10.3
in O | 4.15

COC(OC)OC
Details | solvation free energy, 298 K [kcal/mol]
in O | -4.42

Cc1cccc(C)c1
Details | solvation free energy, 298 K [kcal/mol]
in CC#N | -5.18
in CC(C)CC(C)(C)C | -5.12
in CC(O)CO | -4.13
in CCCCCCC | -5.39
in CCCCCCCCCCCCCCCC | -5.27
in CCCCCCCCO | -5.16
in CCCCOC(C)=O | -6.06
in CNC=O | -4.82
in COCCO | -5.09
in ClCCCl | -5.98
in NC=O | -3.29
in NCCO | -3.85
in O | -0.78
in O=CN1CCOCC1 | -5.03
in OCCO | -3.42
in OCCOCCO | -4.26
in OCCOCCOCCO | -4.4
in c1ccccc1 | -5.99

C=CC1(C)CCC(C(=C)C)CC1C(=C)C (stereo not given)
Details | solvation free energy, 298 K [kcal/mol]
in O | -0.42

CC1CCCC1
Details | solvation free energy, 298 K [kcal/mol]
in CC1CCS(=O)(=O)C1 | -2.51
in CC#N | -2.8
in CCCCCCCCCC | -3.93
in CCCCCCCO | -3.51
in CCCCCO | -3.51
in CN1CCCC1=O | -2.99
in CN1CCCCC1=O | -3.16
in CN(C)C=O | -3
in CNC=O | -2.67
in COCCO | -2.99
in CS(C)=O | -2.47
in O | 1.6
in O=CN1CCOCC1 | -2.47
in OC1CCCCC1 | -3.44
in OCCOCCO | -1.85
in OCCS | -2.33
in OCc1ccccc1 | -3.01

C=C1CCC(C(C)C)c2cc(C)ccc21 (stereo not given)
Details | solvation free energy, 298 K [kcal/mol]
in O | -1.08

CC(C)CCCC(C)C1CCC2C3CC=C4CC(O)CCC4(C)C3CCC12C (stereo not given)
Details | solvation free energy, 298 K [kcal/mol]
in O | -5.93

NC(N)=O
Details | solvation free energy, 298 K [kcal/mol]
in O | -13.6

Nc1ccc(O)cc1
Details | solvation free energy, 298 K [kcal/mol]
in C1COCCO1 | -12.3

ClC(Cl)=C(Cl)Cl
Details | solvation free energy, 298 K [kcal/mol]
in C1CCCC1 | -5.37
in C1CCOC1 | -5.43
in C1COCCO1 | -5.1
in CCC(C)=O | -4.98
in CCCCCCCCCCCCCCCC | -4.88
in CS(C)=O | -4.27
in ClC(Cl)(Cl)Cl | -5.48
in ClCCCl | -5.05
in O | -0.06

ClC=CCl
Details | solvation free energy, 298 K [kcal/mol]
in COC(C)=O | -3.98
in ClCCCl | -3.71

FC(F)=C(F)C(F)(F)F
Details | solvation free energy, 298 K [kcal/mol]
in CCCCCCCC(=O)OCC(COC(=O)CCCCCCC)OC(=O)CCCCCCC | -0.41
in CCCCCCCCO | -0.32
in COCCO | 3.88

CCCCBr
Details | solvation free energy, 298 K [kcal/mol]
in C=CCCCCCCCCCCCCCC | -4.19
in CC(C)(C)O | -4.09
in CC(C)CO | -4.15
in CCC(C)O | -4.19
in CCCCCCCCCCO | -4.19
in CCCCCCCCO | -4.22
in CCO | -4.22
in ClC(Cl)(Cl)Cl | -4.75
in O | -0.34

Clc1ccc(-c2c(Cl)c(Cl)cc(Cl)c2Cl)cc1Cl
Details | solvation free energy, 298 K [kcal/mol]
in O | -4.38

O=C(O)CCCC(=O)O
Details | solvation free energy, 298 K [kcal/mol]
in O | -12.7
in O=C1CCCCC1 | -12.1

CC=CC=CC
Details | solvation free energy, 298 K [kcal/mol]
in C=CCCCCCCCCCCCCCC | -3.86
in O | 0.61

CCCCCCCCCCCCC
Details | solvation free energy, 298 K [kcal/mol]
in O | 4.12

OC1CCCCC1
Details | solvation free energy, 298 K [kcal/mol]
in Brc1ccccc1 | -6.47
in C1CCOC1 | -7.24
in CC#N | -6.37
in CC(C)=O | -6.94
in CC(C)CC(C)(C)C | -5.02
in CC(C)O | -7.35
in CCCCCCCCCCCCCCCC | -4.89
in CCCCCCCCCCO | -7.49
in CCCCCCCCO | -7.02
in CCCCOC(C)=O | -7.07
in CO | -7.69
in O | -5.44
in [2H]O[2H] | -5.7

CCCCCCCCC=CCCCCCCCC(=O)OC
Details | solvation free energy, 298 K [kcal/mol]
in O | -2.13

C=C1C=CC2(C(C)C)CC12 (stereo not given)
Details | solvation free energy, 298 K [kcal/mol]
in O | -0.12

CCCOC(C)=O
Details | solvation free energy, 298 K [kcal/mol]
in CC(=O)N(C)C | -4.72
in CC(C)CCCC(C)CCCC(C)CCCCC(C)CCCC(C)CCCC(C)C | -3.84
in CCCCC(CC)COC(=O)CCCCC(=O)OCC(CC)CCCC | -4.3
in CCCCCC | -4.03
in CCCCCCC | -4.02
in CCCCCCCC | -4.02
in CCCCCCCCC=CCCCCCCCC(=O)OCC(COC(=O)CCCCCCCC=CCCCCCCCC)OC(=O)CCCCCCCC=CCCCCCCCC | -4.35
in CCCCCCCCCC | -3.96
in CCCCCCCCCCCCCCCC | -3.9
in CCCCCCCCO | -4.33
in CCCCCO | -4.31
in CCCCN(C=O)CCCC | -4.56
in CCOCCO | -4.71
in CN1CCCC1=O | -4.62
in CN1CCCCC1=O | -4.72
in CNC(C)=O | -4.54
in CO | -4.82
in NC=O | -3.72
in O | -2.8
in O=CN1CCOCC1 | -4.42
in [2H]O[2H] | -2.84

O=C(O)CCCCCCCc1ccccc1
Details | solvation free energy, 298 K [kcal/mol]
in O | -8.98

CC(=O)CCC(C)C
Details | solvation free energy, 298 K [kcal/mol]
in NC=O | -4.52

CCCCC(=O)OCCC(C)CCC=C(C)C (stereo not given)
Details | solvation free energy, 298 K [kcal/mol]
in O | -2.51

C=O
Details | solvation free energy, 298 K [kcal/mol]
in O | -2.75

CC(C)O
Details | solvation free energy, 298 K [kcal/mol]
in C1CCOC1 | -4.75
in C1COCCO1 | -4.37
in CC#N | -4.42
in CC(=O)CC(C)=O | -4.41
in CC(=O)N(C)C | -5.29
in CC(C)(C)O | -5.02
in CC(C)CC(C)(C)C | -2.9
in CC(C)CCCC(C)CCCC(C)CCCCC(C)CCCC(C)CCCC(C)C | -2.29
in CC(Cl)(Cl)Cl | -4.07
in CCC(C)=O | -4.54
in CCCC(C)O | -4.85
in CCCCCC | -2.76
in CCCCCCC | -2.71
in CCCCCCCCCCCCCCCC | -2.37
in CCCCCCCCCCO | -4.49
in CCCCCCCCO | -4.61
in CCCCCO | -4.99
in CCCCN(C=O)CCCC | -4.71
in CCCCO | -5.02
in CCCO | -5.07
in CCCOCCC | -3.74
in CCN(CC)C(C)=O | -5.2
in CCNC(C)=O | -5.09
in CCNC=O | -5.03
in CCO | -5.27
in CCOC(=O)c1ccccc1C(=O)OCC | -3.75
in CCOC(C)=O | -4.13
in CCOCCO | -4.87
in CCOP(=O)(OCC)OCC | -4.97
in CN1CCCC1=O | -5.12
in CN1CCN(C)C1=O | -5.1
in CNC(C)=O | -5.12
in CO | -5.53
in COC(C)(C)C | -4.22
in COC(C)=O | -4.46
in Cc1ccc(C)cc1 | -3.39
in Cc1cccc(C)c1 | -3.33
in O | -4.76
in O=CN1CCOCC1 | -4.53
in OCCOCCO | -4.77
in [2H]O[2H] | -4.86
